# Structures can show the parent of a compound that is named as a salt.
# Tested on: Aorta
# Experiment: Vasorelaxant activity in Sprague-Dawley rat aortic artery assessed as reduction in phenylephrine-induced contractions
# Assay type: functional, tissue-based
row,SMILES,EC50 [µM]
1,COC(=O)[C@@H](C)[C@]12C=CCN3CC[C@@]4(c5ccccc5NC(=O)[C@H]4C1)[C@@H]32,> 10
2,CC[C@]12C=CCN3CCc4c(n(c5cc(OC)ccc45)[C@](O)(C(=O)OC)C1)[C@@H]32,1.9
3,C[C@@H]1C(=O)O[C@]23N4CC=C[C@]12C[C@@H]1C(=O)Nc2ccccc2[C@@]13CC4,> 10
4,C[C@H]1C(=O)[C@@]23C[C@@]14C=CCN1CC[C@@]2(c2ccccc2NC3=O)[C@@H]14,> 10
5,CC[C@]12C=CCN3CCc4c(n(c5ccccc45)[C@](O)(C(=O)OC)C1)[C@@H]32,3.8
6,CC[C@]12C=CCN3CCc4c(n(c5cc(O)ccc45)[C@@](O)(C(=O)OC)C1)[C@@H]32,2.8
7,COC(=O)[C@@H]1C[C@@]23CCCN4CC[C@@]5(c6ccccc6N[C@]15CC2)[C@@H]43,> 10
8,CC[C@]12C=CCN3CCc4c(n(c5cc(OC)ccc45)[C@@](O)(C(=O)OC)C1)[C@@H]32,2.2
9,CC[C@]12C=CCN3CCc4c(n(c5ccccc45)[C@@](O)(C(=O)OC)C1)[C@@H]32,1.9
10,CC[C@]12C=CCN3CC[C@]4(C(=C(C(=O)OC)C1)Nc1ccccc14)[C@@H]32 [TABERSONINE],> 10
11,C[C@@H]1C(=O)[C@@]23C[C@@]14C=CCN1CC[C@@]2(c2ccccc2NC3=O)[C@@H]14,> 10
12,CC[C@]12CCC[N+]3([O-])CC[C@]4(C(=C(C(=O)OC)C1)Nc1cc(O)ccc14)[C@H]23 (some centres not stated),> 10
13,COC(=O)[C@@H]1C[C@@]23CCC[N+]4([O-])CC[C@@]5(c6ccccc6N[C@]15CC2)[C@H]34 (some centres not stated),> 10
14,CC[C@]12C=CC(=O)N3CC[C@]4(C(=C(C(=O)OC)C1)Nc1ccccc14)[C@@H]32,0.8
15,CC[C@]12C=CCN3CCc4c(n(c5cc(O)ccc45)[C@](O)(C(=O)OC)C1)[C@@H]32,2.4

# The remaining lines, values ahead:
row,EC50 [µM],SMILES
1,> 10,CC[C@]12CCCN3CCc4c(n(c5ccccc45)[C@@H](OC)C1)[C@@H]32
2,> 10,CC[C@]12CCCN3CCc4c(n(c5ccccc45)[C@@H](O)C1)[C@@H]32 [VINCANOL]
3,0.1,Cc1ccc(N(CC2=NCCN2)c2cccc(O)c2)cc1 [PHENTOLAMINE MESYLATE]
4,> 10,CC[C@@]12CC(C(=O)OC)=C3Nc4cc(O)ccc4[C@@]34CCN(C(=O)[C@H]3O[C@H]31)[C@@H]24
5,> 10,C[C@H](O)[C@@]12C[C@@H](C(N)=O)c3[nH]c4ccccc4c3CCN(C[C@H](O)[C@H]1O)C2=O
6,> 10,CC[C@]12CCCN3CC[C@]4(C(=C(C(=O)OC)C1)Nc1cc(O)ccc14)[C@@H]32
7,> 10,CC[C@]12CC(=O)N3CC[C@]4(C(=C(C(=O)OC)C1)Nc1cc(O)ccc14)[C@@H]32
